Laboratory results published in US9695155B2, “Herbicidal substituted pyrimidinyloxy benzene compounds” (E. I. DU PONT DE NEMOURS AND COMPANY, priority 2013, dated 2017).

Legend:
[1] = tested on: barnyardgrass; test: Test A preemergence; type: in vivo, Echinochloa crus-galli; conditions: for Plant response rating, Barnyardgrass: 125 g ai/ha, 0 to 100 scale where 0 is no effect and 100 is complete control; for Barnyardgrass plant response rating: 500 g ai/ha, 0 to 100 scale, 0 no effect, 100 complete control, approx. 10 days
Procedure, shortened: (§1)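 Scoring: eye-based comparison with untreated controls, 0 for no effect through 100 for complete control, at about day 10. Treatments: directed soil spray preemergence; foliar spray postemergence on 2–10 cm plants at the one- to two-leaf stage. Medium: loam soil with sand.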

[2] = tested on: large (Lg) crabgrass; test: Test A preemergence; type: in vivo, Digitaria sanguinalis; conditions: for Plant response rating, Crabgrass, Large: 125 g ai/ha, 0 to 100 scale where 0 is no effect and 100 is complete control; for Crabgrass, Large plant response rating: 500 g ai/ha, 0 to 100 scale, 0 no effect, 100 complete control, approx. 10 days
Procedure, shortened: as §1

[3] = tested on: giant foxtail; test: Test A preemergence; type: in vivo, Setaria faberii; conditions: for Plant response rating, Foxtail, Giant: 125 g ai/ha, 0 to 100 scale where 0 is no effect and 100 is complete control; for Foxtail, Giant plant response rating: 500 g ai/ha, 0 to 100 scale, 0 no effect, 100 complete control, approx. 10 days
Procedure, shortened: as §1

[4] = tested on: morningglory; test: Test A preemergence; type: in vivo, Ipomoea spp.; conditions: for Plant response rating, Morningglory: 125 g ai/ha, 0 to 100 scale where 0 is no effect and 100 is complete control; for Morningglory plant response rating: 500 g ai/ha, 0 to 100 scale, 0 no effect, 100 complete control, approx. 10 days
Procedure, shortened: as §1

[5] = tested on: pigweed; test: Test A preemergence; type: in vivo, Amaranthus retroflexus; conditions: for Plant response rating, Pigweed: 125 g ai/ha, 0 to 100 scale where 0 is no effect and 100 is complete control; for Pigweed plant response rating: 500 g ai/ha, 0 to 100 scale, 0 no effect, 100 complete control, approx. 10 days
Procedure, shortened: as §1

[6] = tested on: velvetleaf; test: Test A preemergence; type: in vivo, Abutilon theophrasti; conditions: for Plant response rating, Velvetleaf: 125 g ai/ha, 0 to 100 scale where 0 is no effect and 100 is complete control; for Velvetleaf plant response rating: 500 g ai/ha, 0 to 100 scale, 0 no effect, 100 complete control, approx. 10 days
Procedure, shortened: as §1

[7] = tested on: wheat; test: Test A preemergence; type: in vivo, Triticum aestivum; conditions: for Plant response rating, Wheat: 125 g ai/ha, 0 to 100 scale where 0 is no effect and 100 is complete control; for Wheat plant response rating: 500 g ai/ha, 0 to 100 scale, 0 no effect, 100 complete control, approx. 10 days
Procedure, shortened: as §1

[8] = tested on: corn; test: Test A preemergence; type: in vivo, Zea mays; conditions: for Plant response rating, Corn: 125 g ai/ha, 0 to 100 scale where 0 is no effect and 100 is complete control; for Corn plant response rating: 500 g ai/ha, 0 to 100 scale, 0 no effect, 100 complete control, approx. 10 days
Procedure, shortened: as §1

[9] = tested on: barnyardgrass; test: Test A postemergence; type: in vivo, Echinochloa crus-galli
Procedure, shortened: as §1

[10] = tested on: large (Lg) crabgrass; test: Test A postemergence; type: in vivo, Digitaria sanguinalis
Procedure, shortened: as §1

[11] = tested on: giant foxtail; test: Test A postemergence; type: in vivo, Setaria faberii
Procedure, shortened: as §1

[12] = tested on: morningglory; test: Test A postemergence; type: in vivo, Ipomoea spp.
Procedure, shortened: as §1

[13] = tested on: pigweed; test: Test A postemergence; type: in vivo, Amaranthus retroflexus
Procedure, shortened: as §1

[14] = tested on: velvetleaf; test: Test A postemergence; type: in vivo, Abutilon theophrasti
Procedure, shortened: as §1

[15] = tested on: wheat; test: Test A postemergence; type: in vivo, Triticum aestivum
Procedure, shortened: as §1

[16] = tested on: corn; test: Test A postemergence; type: in vivo, Zea mays
Procedure, shortened: as §1

[17] = tested on: rice; test: Test B flooded paddy test; type: in vivo, Oryza sativa; conditions: Flood, 250 g ai/ha; 0 to 100 scale where 0 is no effect and 100 is complete control
Procedure, shortened: (§2)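 Plants were grown to the 2-leaf stage, then pots were flooded to 3 cm above the soil and compounds were applied directly into the paddy water. That depth was held throughout, and after 13 to 15 days in the greenhouse injury was rated visually against controls on a 0–100 scale (0 no effect, 100 complete control).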

[18] = tested on: sedge, umbrella; test: Test B flooded paddy test; type: in vivo, Cyperus difformis; conditions: Flood, 250 g ai/ha; 0 to 100 scale where 0 is no effect and 100 is complete control
Procedure, shortened: as §2

[19] = tested on: Heteranthera limosa; test: Test B flooded paddy test; type: in vivo; conditions: Flood, 250 g ai/ha; 0 to 100 scale where 0 is no effect and 100 is complete control
Procedure, shortened: as §2

[20] = tested on: barnyardgrass; test: Test B flooded paddy test; type: in vivo, Echinochloa crus-galli; conditions: Flood, 250 g ai/ha; 0 to 100 scale where 0 is no effect and 100 is complete control
Procedure, shortened: as §2

[21] = 125 g ai/ha, 0 to 100 scale where 0 is no effect and 100 is complete control
[22] = 500 g ai/ha, 0 to 100 scale, 0 no effect, 100 complete control

Row | Compound | Plant response rating, Barnyardgrass [1] | Barnyardgrass plant response rating [1] | Plant response rating, Crabgrass, Large [2] | Crabgrass, Large plant response rating [2] | Plant response rating, Foxtail, Giant [3] | Foxtail, Giant plant response rating [3] | Plant response rating, Morningglory [4] | Morningglory plant response rating [4] | Plant response rating, Pigweed [5] | Pigweed plant response rating [5] | Plant response rating, Velvetleaf [6] | Velvetleaf plant response rating [6] | Plant response rating, Wheat [7] | Wheat plant response rating [7] | Plant response rating, Corn [8] | Corn plant response rating [8] | Plant response rating, Barnyardgrass [9, 21] | Plant response rating, Barnyardgrass [9, 22] | Plant response rating, Crabgrass, Large [10, 21] | Plant response rating, Crabgrass, Large [10, 22] | further results
1 | Clc1ccc(-n2cccn2)c(Oc2ncc(Br)cn2)c1 [Compound 50] | 0 | 0 | 0 | 40 | 0 | 0 | 0 | 0 | 0 | 0 | 0 | 0 | 0 | 0 | 0 | 0 | 0 | 10 | 0 | 10 | Plant response rating, Foxtail, Giant [11, 21]: 0; Plant response rating, Foxtail, Giant [11, 22]: 0; Plant response rating, Morningglory [12, 21]: 20; Plant response rating, Morningglory [12, 22]: 30; Plant response rating, Pigweed [13, 21]: 20; Plant response rating, Pigweed [13, 22]: 30; Plant response rating, Velvetleaf [14, 21]: 0; Plant response rating, Velvetleaf [14, 22]: 10; Plant response rating, Wheat [15, 21]: 0; Plant response rating, Wheat [15, 22]: 0; Plant response rating, Corn [16, 21]: 0; Plant response rating, Corn [16, 22]: 0; Plant response rating, Rice [17]: 0; Plant response rating, Sedge, Umbrella [18]: 0; Plant response rating, Ducksalad [19]: 0; Plant response rating, Barnyardgrass [20]: 0
2 | Clc1cnc(Oc2cc(Cl)ccc2-n2cc(Br)cn2)nc1 [Compound 51] | 20 | 30 | 40 | 90 | 20 | 80 | 0 | 0 | 10 | 80 | 0 | 0 | 0 | 0 | 0 | 0 | 0 | 10 | 0 | 20 | Plant response rating, Foxtail, Giant [11, 21]: 0; Plant response rating, Foxtail, Giant [11, 22]: 10; Plant response rating, Morningglory [12, 21]: 10; Plant response rating, Morningglory [12, 22]: 20; Plant response rating, Pigweed [13, 21]: 30; Plant response rating, Pigweed [13, 22]: 70; Plant response rating, Velvetleaf [14, 21]: 50; Plant response rating, Velvetleaf [14, 22]: 60; Plant response rating, Wheat [15, 21]: 0; Plant response rating, Wheat [15, 22]: 0; Plant response rating, Corn [16, 21]: 0; Plant response rating, Corn [16, 22]: 20; Plant response rating, Rice [17]: 0; Plant response rating, Sedge, Umbrella [18]: 65; Plant response rating, Ducksalad [19]: 40; Plant response rating, Barnyardgrass [20]: 0
